From US9527849B2, “Salt and polymorph of pyrazolopyrimidinone compound, and pharmaceutical composition containing the same, preparation method and use thereof” (TOPHARMAN SHANGHAI CO., LTD., priority 2011, dated 2016)
Entries after “also recorded” stand apart in the source; their conditions may differ. Read-outs that look alike come from different tables or passages of the source.

Experiments:
[1] = Hygroscopicity, moisture weight gain in desiccator; format: physicochemical
Experimental: The hygroscopicities of various salts of compound Z were studied. A certain amount of the sample was placed in a precisely-weighted glass weighing bottle with a stopper to accurately weight. Then the open glass weighing bottle was placed in a desiccator (the saturated potassium nitrate solution was placed at the lower part of the desiccator, the relative humidity was 92.5%) and stood for 48 hours at room temperature. And then the glass weighing bottle was covered with the stopper and weighted again. The absorbent weight can be calculated.

[2] = test system: rats cavernous body pressure/arterial blood pressure (ICP/BP); experiment: Erectile dysfunction (ED) efficacy trial in vivo in rats, method of WO2007056955; conditions: Dose 10 mg/kg, after the administration
PDE8 = experiment: In vitro activity against PDE isoenzyme; format: biochemical; conditions: PDE8
PDE7 = experiment: In vitro activity against PDE isoenzyme; format: biochemical; conditions: PDE7
PDE1 = experiment: In vitro activity against PDE isoenzyme; format: biochemical; conditions: PDE1
PDE4 = experiment: In vitro activity against PDE isoenzyme; format: biochemical; conditions: PDE4
[3] = Comparison of appearance, characters and odor; format: physicochemical
Excerpt: The basic compound Z and various salts of compound Z were selected to compare the appearance and characters.

[4] = Comparison of solubility in water and buffer solutions; format: physicochemical; conditions: for solubility (in words): in water and in other solvents
Experimental: The basic compound Z and various salts of compound Z were selected to compare the solubility. Appropriate amount of sample was weighed, placed in glass tubes. The predetermined solvent was added gradually and the extension of clear of the solution was observed. The solvent included the follows: pure water (pH 6.2), hydrochloric acid solution (pH1.0), a standard potassium hydrogen phthalate buffer solution (pH 4.0), and a mixed phosphate buffer solution (pH 6.86).

[5] = Impact factor stability test (high temperature, high humidity, light exposure); format: physicochemical; conditions: for chemical stability (in words): high temperature, high humidity
Excerpt: The basic compounds of compound Z and the maleate thereof were selected to compare the chemical stability through an impact factor test, and results were shown in Table 8: […]

[6] = High temperature, 5 days, listed as Compound Z (basic)
[7] = High temperature, 10 days, listed as Compound Z (basic)
[8] = Light exposure, 5 days, listed as Compound Z (basic)
[9] = Light exposure, 10 days, listed as Compound Z (basic)

Question: With “1-methyl-5-{2-propoxy-5-[[1-methyl-1-(2-pyrrolidin-1-yl)ethyl]aminosulfonyl]phenyl}-3-propyl-1,6-dihydro-7H-pyrazolo[4,3-D]pyrimidin-7-one maleate” as the compound, how does the “hygroscopicity (in words)” value [1] read?
Answer: Its value is “low moisture absorption; also recorded: no hygroscopicity”.

Question: For `CCCc1nn(C)c2c(=O)[nH]c(-c3cc(S(=O)(=O)N4CCN(C)CC4)ccc3OCC)nc12` [Sildenafil, reference compound], which “ICP/BP increasing rate (%)” value [2] is on record?
Answer: Its value is 73.10 ± 36.24 %.

Question: What about the IC50 (PDE8) of the same compound?
Answer: Its IC50 is > 100 µM.

Question: And the IC50 (PDE7)?
Answer: The IC50 was 46.9 µM.

Question: And the IC50 (PDE1)?
Answer: Its IC50 is 0.46 µM.

Question: What about the IC50 (PDE4) of the same compound?
Answer: Its IC50 is 5.83 µM.

Question: Which Characters [3] does the source give for `CCCOc1ccc(S(=O)(=O)N(C)CCN2CCCC2)cc1-c1nc2c(CCC)nn(C)c2c(=O)[nH]1` [Compound Z, 1-methyl-5-{2-propoxy-5-[[1-methyl-1-(2-pyrrolidin-1-yl)ethyl]aminosulfonyl]phenyl}-3-propyl-1,6-dihydro-7H-pyrazolo[4,3-d]pyrimidin-7-one] here?
Answer: The Characters was “white solid”.

Question: And the Odor [3]?
Answer: The Odor was “pungent odor”.

Question: What about the Odor ([3]; listed as compound Z) of the same compound?
Answer: The Odor was “pungent odor”.

Question: And the “ICP/BP increasing rate (%)” value ([2]; listed as basic compound Z, 10 mg/kg)?
Answer: Its value is 72.22 ± 19.28 %.

Question: And the “Solubility, Pure water (pH 6.1)” value ([4]; Pure water (pH 6.1), listed as Compound Z (basic))?
Answer: The value was “insoluble”.

Question: What about the “Solubility, hydrochloric acid solution (pH 1.0)” value ([4]; hydrochloric acid solution (pH 1.0), listed as Compound Z (basic)) of the same compound?
Answer: The value was >21 mg/ml.

Question: And the “solubility (in words)” value [4]?
Answer: Its value is “poor water-solubility”.

Question: What about the “solubility (in words)” value ([4]; listed as basic compound Z) of the same compound?
Answer: Its value is “significantly less”.

Question: What about the “Solubility, buffer solution (pH 6.86)” value ([4]; mixed phosphate buffer solution (pH 6.86), listed as Compound Z (basic)) of the same compound?
Answer: The value was “insoluble”.

Question: And the solubility ([4]; standard potassium hydrogen phthalate buffer solution, pH 4, aqueous buffer, thermodynamic from solid, potassium hydrogen phthalate buffer solution (pH 4.0), read-out: Solubility, buffer solution (pH 4.0))?
Answer: The solubility was > 5880 µg/mL.

Question: What about the “Moisture weight gain (%)” value ([1]; relative humidity 92.5%, 48 hours, room temperature, listed as Basic compound Z) of the same compound?
Answer: The value was 0.39%.

Question: What about the trait ([5]; 0 day) of the same compound?
Answer: Its trait is “white”.

Question: And the purity ([5]; 0 day, listed as Compound Z (basic))?
Answer: The purity was 98.25%.

Question: What about the trait ([5]; High humidity, 5 days) of the same compound?
Answer: Its trait is “white”.

Question: What about the purity ([5]; High humidity, 5 days, listed as Compound Z (basic)) of the same compound?
Answer: Its purity is 98.02%.

Question: What about the trait ([5]; High humidity, 10 days) of the same compound?
Answer: The trait was “white”.

Question: What about the purity ([5]; High humidity, 10 days, listed as Compound Z (basic)) of the same compound?
Answer: Its purity is 98.20%.

Question: And the purity [5, 6]?
Answer: The purity was 94.70%.

Question: What about the trait [5, 6] of the same compound?
Answer: The trait was “pale yellow”.

Question: And the purity [5, 7]?
Answer: Its purity is 94.55%.

Question: What about the trait [5, 7] of the same compound?
Answer: Its trait is “yellow”.

Question: What about the purity [5, 8] of the same compound?
Answer: The purity was 72.49%.

Question: What about the trait [5, 8] of the same compound?
Answer: The trait was “pale yellow”.

Question: What about the purity [5, 9] of the same compound?
Answer: Its purity is 55.88%.

Question: And the trait [5, 9]?
Answer: Its trait is “pale yellow”.

Question: And the “chemical stability (in words)” value ([5]; light exposure)?
Answer: Its value is “poor chemical stability”.

Question: And the “chemical stability (in words)” value ([5]; light exposure, listed as basic compound Z)?
Answer: The value was “poor stability”.

Question: And the degradation ([5]; light exposure, after 10 days)?
Answer: The degradation was ~50%.
